Source: ChEMBL document CHEMBL4765365, “Design, synthesis and antitumour evaluation of pyrrolo[1,2-f]-phenanthridine and dibenzo[f,h]pyrrolo[1,2-b]isoquinoline derivatives” (Eur J Med Chem, 2020)

How the values were obtained:
[1] = tested on: NCI-H460; experiment: Cytotoxicity against human NCI-H460 cells assessed as reduction in cell viability incubated for 72 hrs by XTT assay; format: functional, cell-based; settings: NCI-H460, 72 h
[2] = tested on: HCT-116; experiment: Induction of cell cycle arrest in human HCT-116 cells assessed as S phase at 0.375 uM measured at 0 hrs by PI staining based flow cytometry analysis (reference value: 12.4 +/- 6.2 %); format: functional
[3] = tested on: HCT-116; experiment: Induction of cell cycle arrest in human HCT-116 cells assessed as G2/M phase at 0.375 uM measured at 0 hrs by PI staining based flow cytometry analysis (reference value: 28.9 +/- 1.4 %); format: functional
[4] = tested on: HCT-116; experiment: Induction of cell cycle arrest in human HCT-116 cells assessed as G0 phase at 0.375 uM incubated for 12 hrs by PI staining based flow cytometry analysis (reference value: 2.2 +/- 1.7 %); format: functional
[5] = tested on: HCT-116; experiment: Induction of cell cycle arrest in human HCT-116 cells assessed as S phase at 0.375 uM incubated for 24 hrs by PI staining based flow cytometry analysis (reference value: 21.2 +/- 5.4 %); format: functional
[6] = tested on: HCT-116; experiment: Induction of cell cycle arrest in human HCT-116 cells assessed as S phase at 0.75 uM incubated for 24 hrs by PI staining based flow cytometry analysis (reference value: 21.2 +/- 5.4 %); format: functional
[7] = tested on: HCT-116; experiment: Induction of cell cycle arrest in human HCT-116 cells assessed as G1 phase at 0.75 uM incubated for 36 hrs by PI staining based flow cytometry analysis (reference value: 57.4 +/- 1.3 %); format: functional
[8] = tested on: HCT-116; experiment: Induction of cell cycle arrest in human HCT-116 cells assessed as S phase at 0.75 uM incubated for 36 hrs by PI staining based flow cytometry analysis (reference value: 7.9 +/- 3.7 %); format: functional
[9] = tested on: HCT-116; experiment: Induction of cell cycle arrest in human HCT-116 cells assessed as G2/M phase at 1.5 uM measured at 0 hrs by PI staining based flow cytometry analysis (reference value: 28.9 +/- 1.4 %); format: functional
[10] = tested on: HCT-116; experiment: Induction of cell cycle arrest in human HCT-116 cells assessed as G1 phase at 1.5 uM incubated for 12 hrs by PI staining based flow cytometry analysis (reference value: 53.6 +/- 4.5 %); format: functional
[11] = tested on: HCT-116; experiment: Induction of cell cycle arrest in human HCT-116 cells assessed as G1 phase at 1.5 uM incubated for 24 hrs by PI staining based flow cytometry analysis (reference value: 55 +/- 9.8 %); format: functional
[12] = tested on: HCT-116; experiment: Induction of cell cycle arrest in human HCT-116 cells assessed as S phase at 1.5 uM incubated for 36 hrs by PI staining based flow cytometry analysis (reference value: 7.9 +/- 3.7 %); format: functional
[13] = tested on: HCT-116; experiment: Induction of cell cycle arrest in human HCT-116 cells assessed as G2/M phase at 1.5 uM incubated for 36 hrs by PI staining based flow cytometry analysis (reference value: 23.6 +/- 1 %); format: functional
[14] = tested on: NCI-H460; experiment: Induction of cell cycle arrest in human NCI-H460 cells assessed as S phase at 0.75 uM measured at 0 hrs by PI staining based flow cytometry analysis (reference value: 12.2 +/- 2.8 %); format: functional
[15] = tested on: NCI-H460; experiment: Induction of cell cycle arrest in human NCI-H460 cells assessed as G1 phase at 0.75 uM incubated for 24 hrs by PI staining based flow cytometry analysis (reference value: 56.8 +/- 7.6 %); format: functional
[16] = tested on: NCI-H460; experiment: Induction of cell cycle arrest in human NCI-H460 cells assessed as S phase at 0.75 uM incubated for 24 hrs by PI staining based flow cytometry analysis (reference value: 11.7 +/- 6.1 %); format: functional
[17] = tested on: NCI-H460; experiment: Induction of cell cycle arrest in human NCI-H460 cells assessed as G2/M phase at 0.75 uM incubated for 24 hrs by PI staining based flow cytometry analysis (reference value: 21 +/- 6.7 %); format: functional
[18] = tested on: NCI-H460; experiment: Induction of cell cycle arrest in human NCI-H460 cells assessed as G1 phase at 0.75 uM incubated for 36 hrs by PI staining based flow cytometry analysis (reference value: 57.9 +/- 3.6 %); format: functional
[19] = tested on: NCI-H460; experiment: Induction of cell cycle arrest in human NCI-H460 cells assessed as S phase at 0.75 uM incubated for 36 hrs by PI staining based flow cytometry analysis (reference value: 7.6 +/- 3.9 %); format: functional
[20] = tested on: NCI-H460; experiment: Induction of cell cycle arrest in human NCI-H460 cells assessed as G2/M phase at 0.75 uM incubated for 36 hrs by PI staining based flow cytometry analysis (reference value: 25 +/- 1.2 %); format: functional
[21] = tested on: NCI-H460; experiment: Induction of cell cycle arrest in human NCI-H460 cells assessed as G0 phase at 1.5 uM measured at 0 hrs by PI staining based flow cytometry analysis (reference value: 1.3 +/- 0.9 %); format: functional
[22] = tested on: NCI-H460; experiment: Induction of cell cycle arrest in human NCI-H460 cells assessed as G1 phase at 1.5 uM measured at 0 hrs by PI staining based flow cytometry analysis (reference value: 53.4 +/- 4.8 %); format: functional
[23] = tested on: NCI-H460; experiment: Induction of cell cycle arrest in human NCI-H460 cells assessed as S phase at 1.5 uM measured at 0 hrs by PI staining based flow cytometry analysis (reference value: 12.2 +/- 2.8 %); format: functional
[24] = tested on: NCI-H460; experiment: Induction of cell cycle arrest in human NCI-H460 cells assessed as G0 phase at 1.5 uM incubated for 12 hrs by PI staining based flow cytometry analysis (reference value: 2.9 +/- 2.4 %); format: functional
[25] = tested on: NCI-H460; experiment: Induction of cell cycle arrest in human NCI-H460 cells assessed as G1 phase at 1.5 uM incubated for 12 hrs by PI staining based flow cytometry analysis (reference value: 66 +/- 10 %); format: functional
[26] = tested on: NCI-H460; experiment: Induction of cell cycle arrest in human NCI-H460 cells assessed as G1 phase at 1.5 uM incubated for 24 hrs by PI staining based flow cytometry analysis (reference value: 56.8 +/- 7.6 %); format: functional
[27] = tested on: NCI-H460; experiment: Induction of cell cycle arrest in human NCI-H460 cells assessed as G1 phase at 3 uM incubated for 12 hrs by PI staining based flow cytometry analysis (reference value: 66 +/- 10 %); format: functional
[28] = tested on: NCI-H460; experiment: Induction of apoptosis in human NCI-H460 cells assessed as necrotic cells at 1.5 uM incubated for 48 hrs by annexin V-FITC and PI staining based flow cytometry analysis (reference value: 0.7 %); format: functional
[29] = tested on: NCI-H460; experiment: Induction of apoptosis in human NCI-H460 cells assessed as viable cells at 6 uM incubated for 48 hrs by annexin V-FITC and PI staining based flow cytometry analysis (reference value: 90.1 %); format: functional; settings: read-out: Activity
[30] = tested on: NCI-H460; experiment: Induction of apoptosis in human NCI-H460 cells assessed as early apoptotic cells at 6 uM incubated for 48 hrs by annexin V-FITC and PI staining based flow cytometry analysis (reference value: 2 %); format: functional
[31] = tested on: HCT-116; experiment: Antitumor activity against human HCT-116 cells xenografted in nude mouse assessed as reduction in tumor size at 30 mg/kg, iv administered for 5 days and repeated cycle for 2 days interval and measured on day 24; format: functional; settings: HCT-116, iv, 576 h, time 24 day, read-out: TGI
[32] = Solubility in mixture of ethanol/PEG400/Cremophor EL/0.9% saline; format: physicochemical; settings: buffer

OCc1cn2c3ccccc3c3ccccc3c2c1CO
IC50 [1]: 3.14 µM | Activity [2]: 12.4% | Activity [3]: 28.8% | Activity [4]: 1.8% | Activity [5]: 17.2% | Activity [6]: 8.9% | Activity [7]: 65.1% | Activity [8]: 5.1% | Activity [9]: 28.5% | Activity [10]: 48.8% | Activity [11]: 54.5% | Activity [12]: 6.1% | Activity [13]: 20.7% | Activity [14]: 12.6% | Activity [15]: 54% | Activity [16]: 11% | Activity [17]: 24.1% | Activity [18]: 67.8% | Activity [19]: 6.3% | Activity [20]: 20.9% | Activity [21]: 1.4% | Activity [22]: 55.5% | Activity [23]: 12% | Activity [24]: 2.6% | Activity [25]: 50.7% | Activity [26]: 56.3% | Activity [27]: 53.3% | Activity [28]: 0.5% | viability at 6 µM [29]: 13.4% | Activity [30]: 29.2% | inhibition in vivo at 30 mg/kg [31]: 72% | solubility [32]: Soluble
